Here are results for seven substances from US5821046A, “RNA oligonucleotides that bind HIV tat protein” (RiboTargets Holdings PLC, priority 1990, dated 1998).

pIC50, pKd: −log10 of the molar value. Where “and” joins values, the source holds several entries; their conditions need not be identical. Equal values may be shown once. Read-outs that look alike come from different tables or passages of the source.

The subject of data set [1] is HIV-1 tat protein. The data set is described as follows: direct filter binding assay of tat to TAR RNA (saturation binding, Scatchard analysis). Conditions: for affinity of tat binding compared with wild type: gel retardation and filter binding assays (data not shown); for pKd: direct filter binding, HIV-1 TAR from saturation binding/Scatchard plot, mutants estimated from half-maximal binding, read-out: Kd (dissociation constant of tat binding). How it is done:
The results shown graphically in FIG. 4 are from experiments in which binding reactions (500 ul) contained 40 nMolar^32 P uniformly radiolabelled TAR RNA at a specific activity of 100,000 Ci/mole; 0.5 ug calf thymus DNA; 0.2 ug yeast TRNA; 40 units RNAsin (Promega); 50mm Tris-HCl pH 7.9 and 20 mM KCl. Reaction mixtures were set up on ice and increasing amounts of HIV-1 tat protein were added and the reaction mixtures were filtered through prewashed nitrocellulose filters (Millipore 0.45 uM pore size). The filters were dried and counted by liquid scintillation counting. The fraction of radiolabeled RNA bound was plotted against HIV-1 tat concentration.
Binding was measured by a filter-binding assay as described below under "Method", using monomeric tat protein prepared by CNBr cleavage of a human growth hormone-tat fusion protein expressed in E. coli. Reactions for saturation binding contained labeled TAR RNA [SEQ ID NO: 1] or antisense TAR RNA [SEQ ID NO: 6] at 10 nm and between 0 to 300 nM purified tat protein. Antisense TAR RNA was used as a control, since antisense TAR is unable to form stable complexes with tat in gel-retardation assays (Dingwall et al., 1989).
The stoichiometry of the tat/TAR interaction was determined by varying the TAR RNA concentrations over a wide range, while keeping the tat protein concentration constant near the Kd. For this Scatchard analysis, the tat protein concentration was held constant at 40 nM and the RNA concentration was varied between 7nM and 320 nM. The total amount of labeled RNA was kept constant in the binding reactions, but the specific activity of the RNA was varied. […]
Tat protein was prepared either from beta-galactosidase-tat fusion proteins (6) or from human growth-hormone-tat fusion proteins (85) using an improved method. In brief, inclusion body pellets containing the fusion protein were solubilized in 7M GdHCl, 50 mM Tris-HCl pH8.0, 2 mM EDTA, 2mM DTT and the fusion protein was purified to near homogeneity by ion-exchange chromatography on Q-Sepharose and S-Sepharose (Pharmacia) in buffers containing […], 50 mM Tris-HCl pH8.0, 2mM EDTA, 2mM DTT. The cysteine residues were protected by disulphide-exchange with 20 mM 2-hydroxyethyldisulphide (86), and the protein was cleaved by cyanogen bromide (6). The basic tat protein was then separated from the acidic human growth hormone peptides by ion-exchange chromatography on Q-Sepharose and S-Sepharose in 6M Urea. The protecting groups were then removed from the protein by addition of 10 mM DTT and the protein refolded by stepwise dialysis against 6 m Urea, 5M Urea,3M Urea, 1M Urea and 0M Urea in a buffer containing 50 mM Tris-HCl pH8.0, 100 uM DTT, 10 uM ZnCl2 Tat protein refolded in this manner elutes as a monomer from Superose 12 columns (Pharmacia) and migrates as a single band on polyacrylamide gels. Protein prepared by both methods behaved comparably in binding assays.
A wide variety of parameters affecting the binding of tat protein to TAR RNA were studied and binding conditions were optimized. Binding of tat to TAR has a distinct pH optimum at pH 8.0, but good binding is observed between pH 7.5 and pH 8.5. Tat/TAR complexes are very sensitive to ionic strength. […] Addition of Zn^+2, Cd^+2, Ca^+2, Mg,^+2, Fe^+2 or Fe^+3 ions to the reaction mixtures […]. However, the binding reaction is sensitive to EDTA at greater than 0.1 mM EDTA. Complex formation is also somewhat temperature sensitive. Optimal binding is observed at 0°C. Between 15° C. and 30° C. there is a 30% reduction in complex formation. […]

Data set [2] deals with HIV-1 tat protein. Briefly: competition filter binding assay, mutant TAR transcripts against labelled HIV-1 TAR RNA (FIG. 7, Table 1). Conditions: 20 nM TAR RNA, 40 nM tat protein; for pIC50: read-out: D1/2 (concentration of competitor RNA that reduces binding of HIV-1 tat to HIV-1 TAR RNA to 50%).
Procedure: Binding reactions (500 ul) were set up on ice and contained 80 pM ^32 P-labeled TAR RNA (17,600 dpm, 200 uCi/n mol) and unlabeled TAR RNA to give a final concentration of 20 nM, 0.5 ug calf thymus DNA, 0.2 ug yeast tRNA, 40 units RNAsin (Promega), 50 mM Tris HCl and 20 mM KCl. After addition of competitor RNA, binding was initiated by addition of HIV-1 tat protein to a final concentration of 400 ng/ml (40 nM). The binding reaction mixtures were then filtered under reduced pressure through pre-washed nitrocellulose filters (Millipore 0.45 uM pore size) and filters were dried and counted by liquid scintillation counting.
The fraction of^32 P-labeled TAR RNA bound was plotted against the final concentration of competitor RNA. In these experiments reactions included 20 nM TAR and 40 nM tat protein and increasing amounts of unlabeled competitor RNA from 40 nm to 6 uM. […] In theory, 40 nM tat will bind 50% of the input TAR RNA (D1/2) when the total TAR RNA concentration is 56 nM.
For competition experiments, binding reactions (500 ul) were set up on ice and contained 80 pM ^32 P-labeled TAR RNA (17,600 dpm, 200 uCi/n mol) and unlabeled TAR RNA to give a final concentration of 20 nM, 0.5 ug calf thymus DNA, 0.2 ug yeast TRNA, 40 units RNAsin (Promega), 50 mM Tris-HCl pH 7.9 and 20 mM KCl. After addition of 0 to 6 uM competitor RNA, binding was initiated by addition of HIV- 1 tat protein to a final concentration of 400 ng/mi (40 nM). The binding reaction mixtures were then filtered under reduced pressure through pre-washed nitrocellulose filters (Millipore 0.45 u pore size) and filters were dried and counted by liquid scintillation counting.
KRel is the ratio of the D1/2 values for HIV-1 TAR and competitor RNA.
The test system of another data set is tat protein. Briefly: competition filter binding assay, bulge and stem mutant TAR RNAs (FIGS. 10-17, Tables 2 and 3). Further details: species or system HIV-1. Conditions: 20 nM TAR RNA, read-out: D1/2. The source says: The graphs shown in FIGS. 10 to 17 illustrate competition for tat binding between TAR RNA and various mutant TAR RNA sequences. In FIGS. 10 and 11 the region unpaired residues at positions 23, 24, 25, 23 being U, is shown to be essential for tat FIGS. 12, 13, 14, 15, 16 and 17 the base stem immediately adjacent to the U-rich bulge be required for efficient tat binding, with there being a requirement for a binding pair at residues 22 and 40 on one side of the bulge, and the base pair G26 - C39 on the other side of the bulge.
In Tables 2 and 3, D1/2 values for various mutant TAR RNA-L sequences are given along with the results of transactivation experiments in which the altered TAR RNA sequences were introduced into the CAT reporter plasmid D5-3-3. TAR RNA sequences which bind poorly are poor competitors and show increased values for D1/2.
Competitor RNA was produced by transcription as described in the method ---or FIG. 7. Binding reactions (500ul) contained 20 nM TAR RNA, 20,000 dpm ^32 P- labeled TAR RNA, 0.5 ug calf thymus DNA, 0.2 ug yeast tRNA, 40 Units RNAsin (Promega), 50 mM Tris-HCl pH7.5, 20 mM KCl in a final volume of 500 ul. […] The binding reaction mixtures were then filtered through pre-washed nitrocellulose filters (Millipore 0.45 u pore size) and the radioactivity retained on the filters assayed by liquid scintillation counting of the dried filters.

With “ASS: anti-sense lower stem, sense upper stem and loop sequences (GGGUUCCCUAGUUAGACCAGAUUUGAGCCUGGGAGCUCUCUGGCUAACCAGAGAGACCC; chemistry not given here)”, in the data set with HIV-1 tat protein [1], the “affinity of tat binding compared with wild type” value was “bind tat with wild-type affinities”.

For orientation: pKd means the negative decadic logarithm of the Kd, by convention in mol/L. In the case of “G28 to C28: TAR point mutation expected to disrupt the top of the TAR stem/loop structure (GGGUCUCUCUGGUUAGACCAGAUUUGACCCUGGGAGCUCUCUGGCUAACUAGGGAACCC; chemistry not given here)”, in the data set with HIV-1 tat protein [2], the “KRel (ratio of D1/2 values for HIV-1 TAR and competitor RNA)” value was found to be 0.09; the pIC50 is 6.17. For the same substance, the pKd with HIV-1 tat protein [1] (listed as SEQ ID NO: 10) is 7.00. In the data set with HIV-1 tat protein [1], the pKd is < 7.00.

As for “G to U (loop): TAR RNA in which residues 32-34 are changed to uridine (U) (GGGUCUCUCUGGUUAGACCAGAUUUGAGCCUUUUAGCUCUCUGGCUAACUAGGGAACCC; RNA, backbone not given here)”, in the data set on HIV-1 tat protein [2], the “KRel (ratio of D1/2 values for HIV-1 TAR and competitor RNA)” value amounted to 0.97; the pIC50 was 7.18. For the same substance, the pKd in the data set on HIV-1 tat protein [1] was 7.60.

As to “HIV-1 TAR (UUU): full length HIV-1 TAR RNA of 59 residues prepared by transcription, wild type, UUU bulge (GGGUCUCUCUGGUUAGACCAGAUUUGAGCCUGGGAGCUCUCUGGCUAACUAGGGAACCC; unmodified RNA) [reference compound]”, the “KRel (ratio of D1/2 values for HIV-1 TAR and competitor RNA)” value in the data set on HIV-1 tat protein [2] came out at 1.00. The pIC50 is 7.19 in the data set on HIV-1 tat protein [2]; 7.05 with tat protein (Table 2, mutations in the U-rich bulge); 7.05 in the data set on tat protein (Table 3, mutations in the stem surrounding the U-rich bulge). For the same substance, the “stoichiometry v, moles of RNA bound per mole of protein” value in the data set on HIV-1 tat protein [1] (Scatchard analysis, 40 nM tat, RNA 7-320 nM) was “approximately one”. For the same substance, the pKd in the data set with HIV-1 tat protein [1] (listed as HIV-1 TAR RNA) is 7.92; in the data set on HIV-1 tat protein [1] (listed as TAR RNA) it was 7.92; in the data set with HIV-1 tat protein [1] (listed as TAR), 7.93 and 7.92; with HIV-1 tat protein [1], 7.92.

“SAS: anti-sense upper stem flanked by sense lower stem and loop sequences (GGGUCUCUCUGGUUAGCCAGAGAGCCUGGGAGCUCAAAUCUGGUCUAACUAGGGAACCC; chemistry not given here)”: the “affinity of tat binding compared with wild type” value with HIV-1 tat protein [1] is recorded as “bind tat with significantly reduced affinities”.

“SSA: sense stem, antisense loop sequence (GGGUCUCUCUGGUUAGACCAGAUUUGAGCUCCCAGGCUCUCUGGCUAACUAGGGAACCC; chemistry not given here)”: the “affinity of tat binding compared with wild type” value in the data set on HIV-1 tat protein [1] was “bind tat with wild-type affinities”.

For “delta U (bulge): TAR RNA in which residues 23-25 are deleted (GGGUCUCUCUGGUUAGACCAGAGAGCCUGGGAGCUCUCUGGCUAACUAGGGAACCC; RNA, backbone not given here)”, in the data set with HIV-1 tat protein [2], the “KRel (ratio of D1/2 values for HIV-1 TAR and competitor RNA)” value is reported as 0.15; the pIC50 was 6.38. The pIC50 in the data set on HIV-1 tat protein [2] (listed as SEQ ID NO: 8) is 6.54. Also, in the data set with HIV-1 tat protein [1], the pKd is < 7.15.
